Like-named read-outs stand apart in the source and are kept apart here.
Experiments:
Format in all cases: in vivo
Myzus persicae [1] = assay: Myzus persicae oral test; settings: 120 h, read-out: efficacy
Procedure: Solvent: 100 parts by weight of acetone
To produce a suitable preparation of active compound, 1 part by weight of active compound is dissolved using the specified parts by weight of solvent and made up with water until the desired concentration is attained.
50 μl of the active compound preparation are transferred into microtitre plates and made up to a final volume of 200 μl with 150 μl of IPL41 insect medium (33%+15% sugar). Subsequently, the plates are sealed with parafilm, which a mixed population of green peach aphids (Myzus persicae) within a second microtitre plate is able to puncture and imbibe the solution through it.
(§1) After 5 days, the efficacy in % is determined. 100% means that all the aphids have been killed; 0% means that no aphids have been killed.

Phaedon cochleariae = Phaedon cochleariae spray test; settings: foliar, 168 h, read-out: efficacy
Procedure: Phaedon cochleariae—Spray Test
(§2) Solvent: • 78.0 parts by weight of acetone • 1.5 parts by weight of dimethylformamide
(§3) Emulsifier: alkylaryl polyglycol ether
(§4) To produce a suitable active compound preparation, 1 part by weight of active compound is dissolved using the stated parts by weight of solvent and made up with water containing an emulsifier concentration of 1000 ppm until the desired concentration is attained. To produce further test concentrations, the formulation is diluted with emulsifier-containing water.
Discs of Chinese cabbage leaves (Brassica pekinensis) are sprayed with an active compound formulation of the desired concentration and, after drying, populated with larvae of the mustard beetle (Phaedon cochleariae).
After 7 days, the efficacy in % is determined. 100% means that all the beetle larvae have been killed; 0% means that no beetle larvae have been killed.

Spodoptera frugiperda = Spodoptera frugiperda spray test; settings: foliar, 168 h, read-out: efficacy
Procedure: Spodoptera frugiperda—Spray Test
as §2, §3
To produce further test concentrations, the formulation is diluted with emulsifier-containing water.
After 7 days, the efficacy in % is determined. 100% means that all the caterpillars have been killed; 0% means that no caterpillar has been killed.

Ctenocephalides felis [2] = assay: Ctenocephalides felis oral test; settings: 48 h, application rate 100 ppm, in citrated cattle blood, after 2 days, read-out: efficacy (kill in %)
Procedure: Ctenocephalides felis—Oral Test
Solvent: Dimethyl sulfoxide
To produce a suitable active compound formulation, 10 mg of active compound are mixed with 0.5 ml of dimethyl sulfoxide. Dilution with citrated cattle blood gives the desired concentration.
About 20 unfed adult cat fleas (Ctenocephalides felis) are placed into a chamber which is closed at the top and bottom with gauze. A metal cylinder whose bottom end is closed with parafilm is placed onto the chamber. The cylinder contains the blood/active compound formulation, which can be imbibed by the fleas through the parafilm membrane.
After 2 days, the kill in % is determined. 100% means that all of the fleas have been killed; 0% means that none of the fleas have been killed.

Myzus persicae [3] = assay: Myzus persicae spray test; settings: foliar, 120 h, application rate 100 g/ha, Chinese cabbage leaf discs, after 5 days, read-out: efficacy
Procedure: Myzus persicae—Spray Test
(§5) Solvent: • 78 parts by weight of acetone • 1.5 parts by weight of dimethylformamide
as §3, §4
Discs of Chinese cabbage leaves (Brassica pekinensis) infested by all stages of the green peach aphid (Myzus persicae) are sprayed with an active compound formulation of the desired concentration.
as §1

Ctenocephalides felis [4] = assay: Ctenocephalides felis in vitro contact test with adult cat fleas; settings: application rate 5 μg/cm^2 (=500 g/ha); after 48 h; fleas dead or moribund
Procedure: Ctenocephalides felis—In Vitro Contact Tests with Adult Cat Fleas
For the coating of the test tubes, 9 mg of active compound are first dissolved in 1 ml of acetone p.a. and then diluted to the desired concentration with acetone p.a. 250 μl of the solution are distributed homogeneously on the inner walls and the base of a 25 ml glass tube by turning and rocking on an orbital shaker (rocking rotation at 30 rpm for 2 h). With 900 ppm of active compound solution and internal surface area 44.7 cm^2, given homogeneous distribution, an area-based dose of 5 μg/cm^2 is achieved.
After the solvent has evaporated off, the tubes are populated with 5-10 adult cat fleas (Ctenocephalides felis), sealed with a perforated plastic lid and incubated in a horizontal position at room temperature and ambient humidity. After 48 h, efficacy is determined. To this end, the tubes are stood upright and the fleas are knocked to the base of the tube. Fleas which remain motionless at the base or move in an uncoordinated manner are considered to be dead or moribund.
100% efficacy means that all the fleas were dead or moribund. 0% efficacy means that no fleas were harmed.

Diabrotica balteata = Diabrotica balteata spray test; settings: 168 h, application rate 160 μg/cavity (μg/well), wheat grains, after 7 days, read-out: efficacy
Procedure: Diabrotica balteata—Spray Test
as §5, §3, §4
Pre-swollen wheat grains (Triticum aestivum) are incubated in a multiwell plate filled with agar and a little water for one day (5 seed grains per well). The germinated wheat grains are sprayed with an active compound preparation of the desired concentration. Subsequently, each cavity is infected with 10-20 beetle larvae of Diabrotica balteata.
After 7 days, the efficacy in % is determined. 100% means that all wheat plants have grown as in the untreated, uninfected control; 0% means that no wheat plant has grown.

Meloidogyne incognita = Meloidogyne incognita test; settings: 336 h, application rate 20 ppm, lettuce, after 14 days, formation of galls, read-out: nematicidal efficacy
Procedure: Meloidouyne incognita Test
Solvent: 125.0 parts by weight of acetone
To produce a suitable active compound formulation, 1 part by weight of active compound is mixed with the stated amount of solvent and the concentrate is diluted to the desired concentration with water.
Vessels are filled with sand, active compound solution, an egg/larvae suspension of the southern root-knot nematode (Meloidogyne incognita) and lettuce seeds. The lettuce seeds germinate and the plants develop. The galls develop on the roots.
After 14 days, the nematicidal efficacy in % is determined by the formation of galls. 100% means that no galls were found; 0% means that the number of galls on the treated plants corresponds to the untreated control.

[5] = application rate 4 ppm, after 5 days
[6] = application rate 100 g/ha, Chinese cabbage leaf discs, after 7 days
[7] = application rate 100 g/ha, maize leaf discs, after 7 days

CCS(=O)(=O)c1c(-c2nc3cc(C(F)(F)F)cnc3n2C)ncc2ccc(C(F)(F)F)cc12 [Example I-021]
pest or weed control at 4 ppm (Myzus persicae [1]; [5]): 100% | pest or weed control at 100 g/ha (Phaedon cochleariae; [6]): 100% | pest or weed control at 100 g/ha (Spodoptera frugiperda; [7]): 100%

CCS(=O)(=O)c1c(-c2nc3cc(C(F)(F)F)cnc3n2C)ncc2cc(NC(=O)OC)ccc12 [Example I-022]
pest or weed control at 4 ppm (Myzus persicae [1]): 100% | pest or weed control at 100 g/ha (Phaedon cochleariae; in Brassica rapa): 100% | pest or weed control at 100 g/ha (Spodoptera frugiperda; in Zea mays): 100%

CCS(=O)(=O)c1c(-c2nc3cc(OC(F)(F)F)cnc3n2C)ncc2c(C(F)(F)F)cccc12 [Example I-024]
pest or weed control at 100 ppm (Ctenocephalides felis [2]): 80% | pest or weed control at 4 ppm (Myzus persicae [1]; [5]): 100% | pest or weed control at 100 g/ha (Myzus persicae [3]): 90% | pest or weed control at 100 g/ha (Phaedon cochleariae; [6]): 100% | pest or weed control at 100 g/ha (Spodoptera frugiperda; [7]): 100%

CCS(=O)(=O)c1c(-c2nc3cc(C(F)(F)F)nnc3n2C)ncc2cc(C(F)(F)F)ccc12 [Example I-025]
efficacy (Ctenocephalides felis [4]): 100% | pest or weed control at 100 ppm (Ctenocephalides felis [2]): 100% | pest or weed control at 160 µg/well (Diabrotica balteata): 100% | pest or weed control at 4 ppm (Myzus persicae [1]; [5]): 100% | pest or weed control at 100 g/ha (Myzus persicae [3]): 90% | pest or weed control at 100 g/ha (Spodoptera frugiperda; [7]): 100%

CCS(=O)(=O)c1c(-c2nc3cc(C(F)(F)F)cnc3n2C)ncc2c(C#N)cccc12 [Example I-026]
pest or weed control at 20 ppm (Meloidogyne incognita): 90% | pest or weed control at 4 ppm (Myzus persicae [1]; [5]): 90% | pest or weed control at 100 g/ha (Myzus persicae [3]): 100% | pest or weed control at 100 g/ha (Phaedon cochleariae; [6]): 100% | pest or weed control at 100 g/ha (Spodoptera frugiperda; [7]): 100%

CCS(=O)(=O)c1c(-c2nc3cc(C(F)(F)F)nnc3n2C)ncc2c(Br)cccc12 [Example I-027]
pest or weed control at 160 µg/well (Diabrotica balteata): 100% | pest or weed control at 20 ppm (Meloidogyne incognita): 100% | pest or weed control at 4 ppm (Myzus persicae [1]; [5]): 100% | pest or weed control at 100 g/ha (Myzus persicae [3]): 70% | pest or weed control at 100 g/ha (Spodoptera frugiperda; [7]): 100%

CCS(=O)(=O)c1c(-c2nc3cc(C(F)(F)F)cnc3n2C)ncc2cc(NC(C)=O)ccc12 [Example I-035]
pest or weed control at 4 ppm (Myzus persicae [1]; [5]): 100% | pest or weed control at 100 g/ha (Myzus persicae [3]): 90% | pest or weed control at 100 g/ha (Phaedon cochleariae; [6]): 100%

CCS(=O)(=O)c1c(-c2nc3cc(C(F)(F)F)cnc3n2C)ncc2cc(NC(=O)C3CC3)ccc12 [Example I-038]
pest or weed control at 4 ppm (Myzus persicae [1]; [5]): 100% | pest or weed control at 100 g/ha (Phaedon cochleariae; [6]): 100% | pest or weed control at 100 g/ha (Spodoptera frugiperda; [7]): 100%

CCS(=O)(=O)c1c(-c2nc3cc(C(F)(F)F)nnc3n2C)ncc2cc(C(F)F)ccc12 [Example I-041]
pest or weed control at 160 µg/well (Diabrotica balteata): 100% | pest or weed control at 20 ppm (Meloidogyne incognita): 100% | pest or weed control at 4 ppm (Myzus persicae [1]; [5]): 100% | pest or weed control at 100 g/ha (Myzus persicae [3]): 90% | pest or weed control at 100 g/ha (Spodoptera frugiperda; [7]): 100%

CCS(=O)(=O)c1c(-c2nc3cc(C(F)(F)F)nnc3n2C)ncc2ccc(C(F)F)cc12 [Example I-042]
pest or weed control at 160 µg/well (Diabrotica balteata): 100% | pest or weed control at 20 ppm (Meloidogyne incognita): 90% | pest or weed control at 4 ppm (Myzus persicae [1]; [5]): 100% | pest or weed control at 100 g/ha (Myzus persicae [3]): 100% | pest or weed control at 100 g/ha (Spodoptera frugiperda; [7]): 83%

CCS(=O)(=O)c1c(-c2nc3cc(C(F)(F)F)nnc3n2C)ncc2ccc(C(F)(F)F)cc12 [Example I-045]
pest or weed control at 160 µg/well (Diabrotica balteata): 100% | pest or weed control at 4 ppm (Myzus persicae [1]; [5]): 100% | pest or weed control at 100 g/ha (Myzus persicae [3]): 100% | pest or weed control at 100 g/ha (Spodoptera frugiperda; [7]): 100%
